Results on 25 molecules are retold here after US10618903B2, “Heteroaryl substituted aminopyridine compounds” (BRISTOL-MYERS SQUIBB COMPANY, priority 2015, dated 2020).

Each structure is given as a SMILES string.

Assay [1] deals with IL-6 levels in human whole blood stimulated with a TLR2 agonist. The experiment in a line: IRAK4 Whole Blood Assay (lipoteichoic acid/TLR2-stimulated IL-6). In kind it is cell-based. As to conditions: lipoteichoic acid 10 μg/mL, IL-6 readout. The essentials: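 ACD-A-anticoagulated human whole blood was preincubated with compounds for 60 min at 37 °C under 5% CO2. It was then stimulated with 10 μg/mL lipoteichoic acid (final) in RPMI for 5 h. IL-6 in plasma supernatants was measured by flow cytometry bead assay.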

A further assay has as its target IRAK4 (Homo sapiens (Human), UniProt Q9NWZ3). The assay is described as follows: IRAK4 Inhibition Assay. In kind it is biochemical. As to conditions: ATP 500 μM; IRAK4 0.6 nM. In outline: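 Mobility-shift readout: phosphorylated and unphosphorylated fluorescent peptide (1.5 μM) resolved by electrophoresis after a 60 min room-temperature reaction stopped with EDTA. Reaction holds 0.6 nM IRAK4, 500 μM ATP and 1.6% DMSO in HEPES pH 7.2/MgCl2/Brij 35/DTT buffer; percent inhibition set against vehicle and no-enzyme controls.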

IRAK4, sequence (Q9NWZ3 whole entry): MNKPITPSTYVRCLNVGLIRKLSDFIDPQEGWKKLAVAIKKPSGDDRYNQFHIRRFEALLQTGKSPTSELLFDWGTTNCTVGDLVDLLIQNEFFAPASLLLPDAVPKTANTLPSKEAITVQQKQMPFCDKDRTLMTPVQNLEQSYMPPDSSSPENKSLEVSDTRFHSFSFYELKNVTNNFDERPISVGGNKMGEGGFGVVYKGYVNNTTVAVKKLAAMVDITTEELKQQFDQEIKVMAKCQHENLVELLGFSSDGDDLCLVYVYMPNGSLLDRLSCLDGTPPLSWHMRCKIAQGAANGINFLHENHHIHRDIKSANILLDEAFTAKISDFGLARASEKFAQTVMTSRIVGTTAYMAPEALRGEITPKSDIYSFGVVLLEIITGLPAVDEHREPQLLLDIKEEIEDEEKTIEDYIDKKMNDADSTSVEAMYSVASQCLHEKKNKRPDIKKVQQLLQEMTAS

In general, EC50 refers to the concentration giving half of the maximal effect. A low value points to an effect from little substance. Broadly, the IC50 is the midpoint of a concentration-inhibition curve. In assay [1] (Homo sapiens), `CC(C)Nc1cc(-c2cnc3cc(C#N)cnn23)ncc1C(=O)NCC(F)C1CC(C)OC(C)C1` (centres unmarked) [Example 203, 6-(7-cyanoimidazo[1,2-b]pyridazin-3-yl)-N-(2-(2,6-dimethyltetrahydro-2H-pyran-4-yl)-2-fluoroethyl)-4-(isopropylamino)nicotinamide] registered a concentration for a half-maximal effect (EC50) of 890 nM. For the same molecule, at IRAK4, the IC50 amounted to 5 nM.

The molecule `CC(C)(O)[C@H](F)CNC(=O)c1cnc(-c2cnc3cc(C#N)cnn23)cc1N[C@H]1CC[C@H](C(C)(C)O)CC1` [Example 204, 6-(7-cyanoimidazo[1,2-b]pyridazin-3-yl)-N—((R)-2-fluoro-3-hydroxy-3-methylbutyl)-4-(((1r,4R)-4-(2-hydroxypropan-2-yl)cyclohexyl)amino)nicotinamide] gave a concentration for a half-maximal effect (EC50) in assay [1] (Homo sapiens) of 260 nM. For the same molecule, at IRAK4, the IC50 was 2 nM.

Turning to `CC(C)(O)[C@H](F)CNC(=O)c1cnc(-c2cnc3cc(Cl)cnn23)cc1NC1CC(F)(F)C1` [Example 206, (R)-6-(7-chioroimidazo[1,2-b]pyridazin-3-yl)-4-((3,3-difluorocyclobutyl)amino)-N-(2-fluoro-3-hydroxy-3-methylbutyl)nicotinamide], in assay [1] (Homo sapiens), the EC50 is 820 nM. Further, at IRAK4, the IC50 stood at 4 nM.

On to `CC(C)(O)[C@H](F)CNC(=O)c1cnc(-c2cnc3cc(C#N)cnn23)cc1NC1CCC(F)C1` (stereo partly drawn) [Example 208, 6-(7-cyanoimidazo[1,2-b]pyridazin-3-yl)-N—((R)-2-fluoro-3-hydroxy-3-methylbutyl)-4-((3-fluorocyclopentyl)amino)nicotinamide], for which the EC50 in assay [1] (Homo sapiens) is 550 nM. For the same molecule, at IRAK4, the IC50 came to 6 nM.

In turn, `CC(C)Nc1cc(-c2cnc3cc(C(F)F)cnn23)ncc1C(=O)NC[C@H](F)C(C)(C)O` [Example 209, (S)-6-(7-(difluoromethyl)imidazo[1,2-b]pyridazin-3-yl)-N-(2-fluoro-3-hydroxy-3-methylbutyl)-4-(isopropylamino)nicotinamide] had an EC50 in assay [1] (Homo sapiens) of 610 nM. For the same molecule, the IC50 at IRAK4 was found to be 4 nM.

For the molecule `CC(C)(O)[C@H](F)CNC(=O)c1cnc(-c2cnc3cc(Cl)cnn23)cc1NCCC(F)F` [Example 210, (R)-6-(7-chloroimidazo[1,2-b]pyridazin-3-yl)-4-((3,3-difluoropropyl)amino)-N-(2-fluoro-3-hydroxy-3-methylbutyl)nicotinamide], a half-maximal effect in assay [1] (Homo sapiens) (EC50) was put at 980 nM. Also, on IRAK4, the IC50 is 3 nM.

For `CC(C)(O)[C@H](F)CNC(=O)c1cnc(-c2cnc3cc(C#N)cnn23)cc1NCCC(F)F` [Example 211, (R)-6-(7-cyanoimidazo[1,2-b]pyridazin-3-yl)-4-((3,3-difluoropropyl)amino)-N-(2-fluoro-3-hydroxy-3-methylbutyl)nicotinamide], the EC50 in assay [1] (Homo sapiens) came to 940 nM. Further, the half-maximal inhibitory concentration (IC50) at IRAK4 worked out at 2 nM.

`CC(C)Nc1cc(-c2cnc3cc(F)cnn23)ncc1C(=O)NC[C@H](F)C(C)(C)O` [Example 212, (S)—N-(2-fluoro-3-hydroxy-3-methylbutyl)-6-(7-fluoroimidazo[1,2-b]pyridazin-3-yl)-4-(isopropylamino)nicotinamide] had a concentration giving a half-maximal response (EC50) in assay [1] (Homo sapiens) of 980 nM. The IC50 on IRAK4 came out at 3 nM.

Turning to `CC(C)Nc1cc(-c2cnc3cc(C#N)cnn23)ncc1C(=O)NCCc1cccs1` [Example 213, 6-(7-cyanoimidazo[1,2-b]pyridazin-3-yl)-4-(isopropylamino)-N-(2-(thiophen-2-yl)ethyl)nicotinamide], it took 890 nM to reach a half-maximal effect in assay [1] (Homo sapiens) (EC50). Also, on IRAK4, the IC50 was 2 nM.

Take `CC(C)Nc1cc(-c2cnc3cc(C#N)cnn23)ncc1C(=O)NCCCn1ccnc1` [Example 214, N-(3-(1H-imidazol-1-yl)propyl)-6-(7-cyanoimidazo[1,2-b]pyridazin-3-yl)-4-(isopropylamino)nicotinamide]: in assay [1] (Homo sapiens), a half-maximal effect (EC50) was put at 480 nM. Also, the half-maximal inhibitory concentration (IC50) on IRAK4 came out at 11 nM.

For the molecule `CC(C)Nc1cc(-c2cnc3cc(C#N)cnn23)ncc1C(=O)NC1CCC(N(C)C)CC1` (centres unmarked) [Example 215, 6-(7-cyanoimidazo[1,2-b]pyridazin-3-yl)-N-(4-(dimethylamino)cyclohexyl)-4-(isopropylamino)nicotinamide], the EC50 in assay [1] (Homo sapiens) was determined as 600 nM. Besides, the IC50 at IRAK4 amounted to 4 nM.

Turning to `CC(=O)N[C@H]1CC[C@H](NC(=O)c2cnc(-c3cnc4cc(Cl)cnn34)cc2NC(C)C)CC1` [Example 219, N-((1r,4r)-4-acetamidocyclohexyl)-6-(7-chloroimidazo[1,2-b]pyridazin-3-yl)-4-(isopropylamino)nicotinamide], the concentration giving a half-maximal response (EC50) in assay [1] (Homo sapiens) amounted to 450 nM. Moreover, the IC50 on IRAK4 was found to be 18 nM.

In turn, `CC(=O)N[C@H]1CC[C@H](NC(=O)c2cnc(-c3cnc4cc(C#N)cnn34)cc2NC(C)C)CC1` [Example 220, N-((1r,4r)-4-acetamidocyclohexyl)-6-(7-cyanoimidazo[1,2-b]pyridazin-3-yl)-4-(isopropylamino)nicotinamide] displayed an EC50 in assay [1] (Homo sapiens) of 340 nM. On IRAK4, the IC50 amounted to 16 nM.

Molecule `C[C@@H](CF)Nc1cc(-c2cnc3cc(C#N)cnn23)ncc1C(=O)NCCC(C)(C)O` [Example 221, (S)-6-(7-cyanoimidazo[1,2-b]pyridazin-3-yl)-4-((1-fluoropropan-2-yl)amino)-N-(3-hydroxy-3-methylbutyl)nicotinamide] returned a concentration for a half-maximal effect (EC50) in assay [1] (Homo sapiens) of 570 nM. Besides, on IRAK4, the IC50 was determined as 14 nM.

For the molecule `CC(C)(O)[C@H](F)CNC(=O)c1cnc(-c2cnc3cc(C(F)F)cnn23)cc1NC1COC1` [Example 222, (R)-6-(7-(difluoromethyl)imidazo[1,2-b]pyridazin-3-yl)-N-(2-fluoro-3-hydroxy-3-methylbutyl)-4-(oxetan-3-ylamino)nicotinamide], it took 630 nM to reach a half-maximal effect in assay [1] (Homo sapiens) (EC50). The 50% inhibitory concentration (IC50) at IRAK4 was determined as 7 nM.

For the molecule `COC(=O)N[C@H]1CC[C@H](NC(=O)c2cnc(-c3cnc4cc(C#N)cnn34)cc2NC(C)C)CC1` [Example 223, methyl((1r,4r)-4-(6-(7-cyanoimidazo[1,2-b]pyridazin-3-yl)-4-(isopropylamino)nicotinamido)cyclohexyl)carbamate], the EC50 in assay [1] (Homo sapiens) was 810 nM. Besides, at IRAK4, the concentration for half-maximal inhibition (IC50) was 13 nM.

In assay [1] (Homo sapiens), `COC(=O)N[C@H]1CC[C@H](NC(=O)c2cnc(-c3cnc4cc(C#N)cnn34)cc2NC2(C)CC2)CC1` [Example 224, methyl ((1r,4r)-4-(6-(7-cyanoimidazo[1,2-b]pyridazin-3-yl)-4-((1-methylcyclopropyl)amino)nicotinamido)cyclohexyl)carbamate] gave an EC50 of 570 nM. Moreover, at IRAK4, the IC50 came to 7 nM.

With `CC(C)n1cc(Nc2cc(-c3cnn4cc(Cl)cnc34)ncc2C(=O)NC[C@@H](F)C(C)(C)O)cn1` [Example 233, (R)-6-(6-chloropyrazolo[1,5-a]pyrimidin-3-yl)-N-(2-fluoro-3-hydroxy-3-methylbutyl)-4-((1-isopropyl-1H-pyrazol-4-yl)amino)nicotinamide], the half-maximal effective concentration (EC50) in assay [1] (Homo sapiens) was found to be 570 nM. Further, the IC50 on IRAK4 amounted to 6 nM.

Molecule `CC(C)(O)[C@H](F)CNC(=O)c1cnc(-c2cnn3cc(C#N)cnc23)cc1Nc1cnn(C(F)F)c1` [Example 234, (R)-6-(6-cyanopyrazolo[1,5-a]pyrimidin-3-yl)-4-((1-(difluoromethyl)-1H-pyrazol-4-yl)amino)-N-(2-fluoro-3-hydroxy-3-methylbutyl)nicotinamide] came in with an EC50 in assay [1] (Homo sapiens) of 540 nM. Moreover, the 50% inhibitory concentration (IC50) at IRAK4 is 3 nM.

Regarding `CC(C)(O)[C@H](F)CNC(=O)c1cnc(-c2cnn3cc(Cl)cnc23)cc1Nc1cnn(CC(F)(F)F)c1` [Example 237, (R)-6-(6-chloropyrazolo[1,5-a]pyrimidin-3-yl)-N-(2-fluoro-3-hydroxy-3-methylbutyl)-4-((1-(2,2,2-trifluoroethyl)-1H-pyrazol-4-yl)amino)nicotinamide], the response in assay [1] was half-maximal at 690 nM (EC50). On IRAK4, the IC50 amounted to 2 nM.

`O=C(N[C@H]1CC[C@H](O)CC1)c1cnc(-c2cnn3cc(Cl)cnc23)cc1Nc1cnn(CC(F)F)c1` [Example 252, 6-(6-chloropyrazolo[1,5-a]pyrimidin-3-yl)-4-((1-(2,2-difluoroethyl)-1H-pyrazol-4-yl)amino)-N-((1r,4r)-4-hydroxycyclohexyl) nicotinamide] returned an EC50 in assay [1] (Homo sapiens) of 930 nM. For the same molecule, the IC50 on IRAK4 was determined as 3 nM.

In turn, `CC(C)(O)[C@H]1CC[C@H](NC(=O)c2cnc(-c3cnn4cc(Cl)cnc34)cc2Nc2cnn(C3CC3)c2)CC1` [Example 254, 6-(6-chloropyrazolo[1,5-a]pyrimidin-3-yl)-4-((1-cyclopropyl-1H-pyrazol-4-yl)amino)-N-((1r,4r)-4-(2-hydroxypropan-2-yl)cyclohexyl)nicotinamide] displayed a 50% effective concentration (EC50) in assay [1] (Homo sapiens) of 470 nM. Moreover, the IC50 at IRAK4 amounted to 2 nM.

In assay [1] (Homo sapiens), `Cn1cc(Nc2cc(-c3cnn4cc(Cl)cnc34)ncc2C(=O)NCCC(C)(C)O)cn1` [Example 255, 6-(6-chloropyrazolo[1,5-a]pyrimidin-3-yl)-N-(3-hydroxy-3-methylbutyl)-4-((1-methyl-1H-pyrazol-4-yl)amino)nicotinamide] displayed an EC50 of 720 nM. Further, the IC50 at IRAK4 was 5 nM.

With `Cn1cc(Nc2cc(-c3cnn4cc(Cl)cnc34)ncc2C(=O)N[C@H]2CC[C@H](C(C)(C)O)CC2)cn1` [Example 256, 6-(6-chloropyrazolo[1,5-a]pyrimidin-3-yl)-N-((1r,4r)-4-(2-hydroxypropan-2-yl)cyclohexyl)-4-((1-methyl-1H-pyrazol-4-yl)amino)nicotinamide], in assay [1] (Homo sapiens), the midpoint of the response, the EC50, lay at 790 nM. Also, at IRAK4, the half-inhibitory concentration (IC50) is 3 nM.

Consider `COC(=O)N[C@H]1CC[C@H](NC(=O)c2cnc(-c3cnn4cc(Cl)cnc34)cc2Nc2cnn(C)c2)CC1` [Example 257, methyl ((1r,4r)-4-(6-(6-chloropyrazolo[1,5-a]pyrimidin-3-yl)-4-((1-methyl-1H-pyrazol-4-yl)amino)nicotinamido)cyclohexyl)carbamate], for which the EC50 in assay [1] (Homo sapiens) is 710 nM. For the same molecule, at IRAK4, the 50% inhibitory concentration (IC50) was 14 nM.
